Source: ChEMBL document CHEMBL1140146, “Cycloartane glycosides from Sutherlandia frutescens” (J Nat Prod, 2008)
The source made the active and inactive calls.

What was measured:
Type in all cases: functional, organism-based
Plasmodium falciparum [1] = test: Antimalarial activity against Plasmodium falciparum D6 at 40 ug/mL
Aspergillus fumigatus = test: Antimicrobial activity against Aspergillus fumigatus at 20 ug/mL
Cryptococcus neoformans = test: Antimicrobial activity against Cryptococcus neoformans at 20 ug/mL by microplate assay
Staphylococcus aureus [2] = test: Antimicrobial activity against methicillin-resistant Staphylococcus aureus at 20 ug/mL by microplate assay
[3] = system: Mycobacterium intracellulare; test: Antimicrobial activity against Mycobacterium intracellular at 20 ug/mL
Pseudomonas aeruginosa = test: Antimicrobial activity against Pseudomonas aeruginosa at 20 ug/mL
Staphylococcus aureus [4] = test: Antimicrobial activity against Staphylococcus aureus at 20 ug/mL by microplate assay
Plasmodium falciparum [5] = test: Antimalarial activity against Plasmodium falciparum W2 at 40 ug/mL
Candida albicans = test: Antimicrobial activity against Candida albicans at 20 ug/mL by NCCLS method

Measured: Activity

C[C@H](CC[C@H](O)C(C)(C)O[C@@H]1O[C@H](CO)[C@@H](O)[C@H](O)[C@H]1O)[C@H]1CC[C@@]2(C)[C@@H]3[C@@H](O)C[C@H]4C(C)(C)[C@H](O)CC(=O)[C@@]45C[C@@]35CC[C@]12C
inactive: all assays above

C[C@H](CC[C@H](O)C(C)(C)O[C@@H]1O[C@H](CO)[C@@H](O)[C@H](O)[C@H]1O)[C@H]1CC[C@@]2(C)[C@H]3C(=CC[C@]12C)C[C@]12O[C@H]3C[C@H]1C(C)(C)[C@H](O)C[C@@H]2O
inactive: all assays above

C[C@H](CC[C@H](O)C(C)(C)O[C@@H]1O[C@H](CO)[C@@H](O)[C@H](O)[C@H]1O)[C@H]1CC[C@@]2(C)[C@@H]3[C@@H](O)C[C@H]4C(C)(C)C=CC(=O)[C@@]45C[C@@]35CC[C@]12C
inactive: all assays above

C[C@H](CC[C@H](O)C(C)(C)O[C@@H]1O[C@H](CO)[C@@H](O)[C@H](O)[C@H]1O)[C@H]1CC[C@@]2(C)[C@@H]3CC[C@H]4C(C)(C)[C@H](O)CC(=O)[C@@]45C[C@@]35C(=O)C[C@]12C
inactive: all assays above
